Here are results for 26 molecules from PubChem BioAssay AID316 (DTP/NCI, 2004).

The test concerns P1534 leukemia ip, CD2F1 mice, survival T/C. The test is described as follows: NCI In Vivo Anticancer Drug Screen. Data for tumor model P1534 Leukemia (intraperitoneal) in CD2F1 (CDF1) mice. The note with it: higher = longer survival. As to the method:
The antitumor activity of compounds was measured in mice bearing transplantable tumors. Survival or tumor size were measured and the results are expressed as the measurement made in the treated group (T) divided by the measurement made in the vehicle treated control group (C). The tumor model used in this assay is P1534 Leukemia (intraperitoneal) in CD2F1 (CDF1) mice

The mark [1] stands for this setting: endpoint: mean survival time, dose: 12.5 mg/kg/injection, schedule: Q01DX010 (ip), vehicle: saline.
Setting [2] is: endpoint: mean survival time, dose: 25.0 mg/kg/injection, schedule: Q01DX010 (ip), vehicle: saline.
Setting [3] is: endpoint: mean survival time, dose: 50.0 mg/kg/injection, schedule: Q01DX010 (ip), vehicle: saline.
[4] abbreviates: endpoint: mean survival time, dose: 100.0 mg/kg/injection, schedule: Q01DX010 (ip), vehicle: saline.
Setting [5] is: endpoint: mean survival time, dose: 200.0 mg/kg/injection, schedule: Q01DX010 (ip), vehicle: saline.
[6] abbreviates: endpoint: mean survival time, dose: 400.0 mg/kg/injection, schedule: Q01DX010 (ip), vehicle: saline.
[7] abbreviates: endpoint: mean survival time, dose: 0.5 mg/kg/injection, schedule: Q01DX010 (ip), vehicle: saline.
Setting [8] is: endpoint: mean survival time, dose: 3.75 mg/kg/injection, schedule: Q01DX010 (ip), vehicle: saline.
Setting [9] is: endpoint: mean survival time, dose: 7.5 mg/kg/injection, schedule: Q01DX010 (ip), vehicle: saline.
The mark [10] stands for this setting: endpoint: mean survival time, dose: 15.0 mg/kg/injection, schedule: Q01DX010 (ip), vehicle: saline.
The mark [11] stands for this setting: endpoint: mean survival time, dose: 3.13 mg/kg/injection, schedule: Q01DX010 (ip), vehicle: saline.
[12] abbreviates: endpoint: mean survival time, dose: 6.25 mg/kg/injection, schedule: Q01DX010 (ip), vehicle: saline.
Where [13] appears, read: endpoint: mean survival time, dose: 300.0 mg/kg/injection, schedule: Q01DX010 (ip), vehicle: saline.
Where [14] appears, read: endpoint: mean survival time, dose: 125.0 mg/kg/injection, schedule: Q01DX010 (ip), vehicle: saline.
Setting [15] is: endpoint: mean survival time, dose: 500.0 mg/kg/injection, schedule: Q01DX010 (ip), vehicle: saline.
Setting [16] is: endpoint: mean survival time, dose: 10.0 mg/kg/injection, schedule: Q01DX010 (ip), vehicle: saline.
Setting [17] is: endpoint: mean survival time, dose: 20.0 mg/kg/injection, schedule: Q01DX010 (ip), vehicle: saline.
[18] abbreviates: endpoint: mean survival time, dose: 40.0 mg/kg/injection, schedule: Q01DX010 (ip), vehicle: saline.

SMILES strings stand for the structures. “And” between values parts separate entries of the source, which are not always exact repeats. Equal values may be shown once. Toxic doses and inconclusive results are not listed.

In the case of `CC(C)=CCN=C(N)N`, the T/C was 103 % of control under setting [1] and 106 % of control under setting [2].

Turning to `O=C(NCCCCCCNC(=O)OCc1ccccc1)OCc1ccccc1`, the T/C under setting [3] is 100 % of control, the T/C under setting [4] is 96 % of control, the T/C under setting [5] was 92 % of control and the T/C under setting [6] was 100 % of control.

As for `NCCCC(N)C(=O)NCCCCCCNCCCCCCNC(=O)C(N)CCCN` (centres undefined), the T/C is, setting by setting: under setting [1], 100 % of control; under setting [2], 92 % of control; under setting [3], 100 % of control; under setting [4], 96 % of control.

For the molecule `N#C[C@@H]1C2C=CC(CC2)[C@H]1C#N`, the T/C (endpoint: mean survival time, dose: 0.25 mg/kg/injection, schedule: Q01DX010 (ip), vehicle: saline) is 100 % of control; the T/C under setting [7] is 103 % of control and 96 % of control; the T/C (endpoint: mean survival time, dose: 1.0 mg/kg/injection, schedule: Q01DX010 (ip), vehicle: saline) is 103 % of control and 100 % of control; the T/C (endpoint: mean survival time, dose: 2.0 mg/kg/injection, schedule: Q01DX010 (ip), vehicle: saline) is 103 % of control and 96 % of control.

Take `CC(=O)O[C@H]1C(=O)[C@@]2(C)[C@H]([C@H](OC(=O)c3ccccc3)[C@]3(O)C[C@H](OC(=O)[C@H](O)[C@@H](NC(=O)c4ccccc4)c4ccccc4)C(C)=C1C3(C)C)[C@]1(OC(C)=O)CO[C@@H]1C[C@@H]2O`: the T/C reads like this: (endpoint: mean survival time, dose: 1.88 mg/kg/injection, schedule: Q01DX010 (ip), vehicle: saline) 300 % of control; under setting [8], 300 % of control; under setting [9], 250 % of control; under setting [10], 89 % of control.

In the case of `COc1ccc2cc3[n+](cc2c1OC)CCc1cc2c(cc1-3)OCO2`, the T/C by setting is: (endpoint: mean survival time, dose: 1.56 mg/kg/injection, schedule: Q01DX010 (ip), vehicle: saline) 106 % of control; under setting [11], 106 % of control; under setting [12], 110 % of control; under setting [1], 123 % of control.

In the case of `Cc1nc(N)nc(N)c1-c1ccc(Cl)c(Cl)c1`, the T/C (endpoint: median survival time, dose: 0.75 mg/kg/injection, schedule: Q01DX009 (ip), vehicle: Klucel (hydroxypropylcellulose) (HPC)) is 102 % of control; the T/C (endpoint: median survival time, dose: 1.5 mg/kg/injection, schedule: Q01DX009 (ip), vehicle: Klucel (hydroxypropylcellulose) (HPC)) is 119 % of control; the T/C (endpoint: median survival time, dose: 3.0 mg/kg/injection, schedule: Q01DX009 (ip), vehicle: Klucel (hydroxypropylcellulose) (HPC)) was 107 % of control.

On to `COCCOC`, for which the T/C is, setting by setting: under setting [13], 100 % of control; (endpoint: mean survival time, dose: 450.0 mg/kg/injection, schedule: Q01DX010 (ip), vehicle: saline) 107 % of control; (endpoint: mean survival time, dose: 675.0 mg/kg/injection, schedule: Q01DX010 (ip), vehicle: saline) 103 % of control.

Turning to `O=C(C[C@H]1CCC[C@H](CC(=O)c2ccccc2)N1)c1ccccc1`, the T/C under setting [1] was 92 % of control, the T/C under setting [2] was 107 % of control and the T/C under setting [3] was 107 % of control.

For `COc1cc(-c2ccc(Nc3ccccc3C(=O)O)c(OC)c2)ccc1Nc1ccccc1C(=O)O`, the T/C by setting is: under setting [1], 107 % of control; under setting [2], 114 % of control and 117 % of control; under setting [3], 117 % of control.

Turning to `CC1CCC(NC(=O)N(CCCl)N=O)CC1` (centres undefined), the T/C was 111 % of control (endpoint: median survival time, dose: 1.0 mg/kg/injection, schedule: Q01DX005 (ip), vehicle: other); 255 % of control (endpoint: median survival time, dose: 4.0 mg/kg/injection, schedule: Q01DX005 (ip), vehicle: other); 255 % of control (endpoint: median survival time, dose: 8.0 mg/kg/injection, schedule: Q01DX005 (ip), vehicle: other); 115 % of control (endpoint: median survival time, dose: 16.0 mg/kg/injection, schedule: Q01DX005 (ip), vehicle: other).

Consider `O=c1cnn(C2OC(CO)C(O)C2O)c(=O)[nH]1` (centres undefined), for which the T/C was 105 % of control and 107 % of control under setting [4]; 105 % of control and 120 % of control under setting [5]; 90 % of control and 94 % of control under setting [13]; 103 % of control and 110 % of control under setting [6]; 86 % of control and 89 % of control (endpoint: mean survival time, dose: 700.0 mg/kg/injection, schedule: Q01DX010 (ip), vehicle: saline); 93 % of control and 101 % of control (endpoint: mean survival time, dose: 800.0 mg/kg/injection, schedule: Q01DX010 (ip), vehicle: saline). Besides, the T/C (endpoint: mean survival time, dose: 1600.0 mg/kg/injection, schedule: Q01DX010 (ip), vehicle: saline) is 88 % of control.

Consider `CCOC(N)=O`, for which the T/C under setting [14] was 100 % of control; the T/C (endpoint: mean survival time, dose: 250.0 mg/kg/injection, schedule: Q01DX010 (ip), vehicle: saline) was 112 % of control and 100 % of control; the T/C under setting [15] was 112 % of control and 100 % of control; the T/C (endpoint: mean survival time, dose: 1000.0 mg/kg/injection, schedule: Q01DX010 (ip), vehicle: saline) was 88 % of control and 93 % of control.

On to `CCCNc1ncnc2c1cnn2C`, for which the T/C was 100 % of control under setting [11]; 103 % of control and 100 % of control under setting [12]; 103 % of control and 107 % of control under setting [1]; 107 % of control and 100 % of control under setting [2].

Consider `c1ccc(CCSc2ncnc3nc[nH]c23)cc1`, for which the T/C by setting is: under setting [14], 100 % of control; under setting [15], 103 % of control.

On to `C[C@@H]1C[C@@H]([C@H](O)CC2CC(=O)NC(=O)C2)C(=O)[C@@H](C)C1`, for which the T/C is 112 % of control and 100 % of control (endpoint: mean survival time, dose: 5.0 mg/kg/injection, schedule: Q01DX010 (ip), vehicle: saline); 111 % of control and 112 % of control under setting [16]; 111 % of control under setting [17]; 105 % of control under setting [18].

Take `CC[C@]12C=CCN3CC[C@@]4(c5ccc(OC)cc5N(C)[C@H]4[C@@](O)(C(=O)OC)[C@@H]1O)[C@@H]32`: the T/C was 93 % of control under setting [8]; 100 % of control under setting [9]; 93 % of control under setting [10]; 100 % of control (endpoint: mean survival time, dose: 30.0 mg/kg/injection, schedule: Q01DX010 (ip), vehicle: saline); 96 % of control under setting [3]; 92 % of control under setting [4].

As to `COc1c(OC2OC(CO)C(O)C(O)C2O)cc2c(c1OC)-c1ccc(OC)c(=O)cc1C(NC(C)=O)CC2` (centres undefined), the T/C is 107 % of control under setting [12]; 107 % of control under setting [1]; 107 % of control under setting [2]; 107 % of control and 110 % of control under setting [3].

Regarding `O=C(CNC(=O)OCc1ccccc1)NCCCCCCNCCCCCCNC(=O)CNC(=O)OCc1ccccc1`, the T/C was 100 % of control under setting [2], 107 % of control under setting [3], 103 % of control under setting [4] and 100 % of control under setting [5].

For `COc1ccc2c3c(c4cc(OC)c(OC)cc4c2c1)C[C@H]1CCCCN1C3`, the T/C runs as follows: (endpoint: mean survival time, dose: 0.3 mg/kg/injection, schedule: Q01DX010 (ip), vehicle: saline) 100 % of control; under setting [7], 113 % of control.

Turning to `Cn1c(N)nc2nc[nH]c2c1=S`, the T/C reads like this: under setting [16], 100 % of control; under setting [17], 100 % of control; under setting [18], 96 % of control; (endpoint: mean survival time, dose: 80.0 mg/kg/injection, schedule: Q01DX010 (ip), vehicle: saline) 110 % of control.

As for `CC(/C=N/N=C(N)N)=N\NC(N)=S`, the T/C was 100 % of control under setting [3], 100 % of control under setting [4] and 100 % of control under setting [5].

Take `O=C1C(=O)N(CN(CCO)CCO)c2ccccc21`: the T/C runs as follows: under setting [3], 96 % of control; under setting [4], 100 % of control; under setting [5], 100 % of control; under setting [6], 100 % of control.

In the case of `CC[C@H](CC[C@@H](C)[C@H]1CC[C@H]2[C@@H]3CC=C4C[C@@H](O)CC[C@]4(C)[C@H]3CC[C@]12C)C(C)C`, the T/C was 100 % of control (endpoint: mean survival time, dose: 50.0 mg/kg/injection, schedule: Q01DX010 (ip), vehicle: other); 100 % of control (endpoint: mean survival time, dose: 100.0 mg/kg/injection, schedule: Q01DX010 (ip), vehicle: other); 106 % of control (endpoint: mean survival time, dose: 200.0 mg/kg/injection, schedule: Q01DX010 (ip), vehicle: other); 108 % of control (endpoint: mean survival time, dose: 300.0 mg/kg/injection, schedule: Q01DX010 (ip), vehicle: other).

For `O=C(CCCNC(=O)OCc1ccccc1)NCCCCCCCCCCNC(=O)CCCNC(=O)OCc1ccccc1`, the T/C is 89 % of control under setting [3] and 89 % of control under setting [4].

In the case of `O=C(O)c1cc(C(=O)O)[nH]n1`, the T/C is 103 % of control (endpoint: mean survival time, dose: 100.0 mg/kg/injection, schedule: Q01DX010 (ip), vehicle: water) and 103 % of control (endpoint: mean survival time, dose: 150.0 mg/kg/injection, schedule: Q01DX010 (ip), vehicle: water).
